# Assay results published in patent US12655090B2, “Cyclopropylamide compounds against parasites in fish” (Intervet Inc., priority 2021, dated 2026).
# Like-named read-outs stand apart in the source and are kept apart here.
# Key:
# [1] = system: Lepeophtheirus salmonis sea lice on salmon (Salmo salar); assay: Salmon in vivo efficacy trial using in-feed administration; conditions: 1 mg/kg fish biomass via coated feed for 7 consecutive days
# Method: Commercial fish feed pellets were coated with formulated test compound. As formulation DMSO 5%/fish oil 95% was used. Salmon (Salmo salar) were treated orally with 1 mg/kg fish biomass via coated feed for 7 consecutive days. Salmon of the negative control groups received only feed coated with the excipients of the formulation. Fish of the therapeutic groups were infested with Lepeophtheirus salmonis copepodids twice before treatment (around day −28 and day −3).
# [2] = system: Copepodids (juvenile sea lice stage of Lepeophtheirus salmonis); assay: Juvenile sea lice contact assay; conditions: approximately 24 hours continuous exposure in seawater, read-out: Sea lice inhibition (% of dead+damaged copepodids); for inhibition at 0.01 µM: test concentration 10 nM; for inhibition at 0.0001 µM: test concentration 0.1 nM; for inhibition at 0.1 µM: test concentration 100 nM; for inhibition at 10 pM: test concentration 0.01 nM; for inhibition at 0.001 µM: test concentration 1 nM
# Method: Copepodids (juvenile sea lice stage of Lepeophtheirus salmonis) were exposed to seawater spiked with declining concentrations of a test compound (dissolved in a DMSO sea-water mixture). Sea lice inhibition (% of dead+damaged copepodids) was assessed after approximately 24 hours of continuous exposure. The vitality of used parasites was confirmed in a negative (solvent) control group.
# [3] = system: Mobile stages of sea lice (pre-adults, adults of Lepeophtheirus salmonis); assay: Adult sea lice contact assay; conditions: assessed after approximately 1 and 24 hours of continuous exposure, read-out: EC50 (sea lice inhibition, dead+damaged sea lice)
# Method: Mobile stages of sea lice (i.e., pre-adults, adults of Lepeophtheirus salmonis) were exposed to seawater spiked with declining concentrations of a test compound (dissolved in a PEG sea-water mixture). Sea lice inhibition (% of dead+damaged sea lice) was assessed after approximately 1 and 24 hours of continuous exposure in comparison to a negative (solvent) control group.
# [4] = system: Lepeophtheirus salmonis sea lice on salmon (Salmo salar); assay: Salmon in vivo efficacy trial using gavage administration; conditions: po
# Method: Salmon (Salmo salar) were treated once orally by gavage at a dose of 5 mg/kg bodyweight per fish (Day 0). As formulation DMSO 5%/fish oil 95% was used. Salmon of the negative control group received only the excipients of the formulation. The fish were infested with Lepeophtheirus salmonis copepodids twice before treatment (i.e., around day −28 and day −3) and once after treatment (i.e., day 17). […] Around day 28 (end of animal phase), fish were euthanized, and lice on each fish were classified ((pre-)adult or juvenile stage) and counted. […] Efficacy is expressed as a % reduction of sea lice in treated groups versus a control group, using the Abbott's formula.
# [5] = 168 h, read-out: therapeutic efficacy against (pre-)adult sea lice (% reduction vs control, Abbott's formula), once orally by gavage 5 mg/kg bodyweight, day -28 infestation, counted at day 7
# [6] = 672 h, read-out: prophylactic efficacy at re-infestation on Day 17 (% reduction vs control, Abbott's formula), once orally by gavage 5 mg/kg bodyweight, re-infestation day 17, counted around day 28
# [7] = 672 h, read-out: therapeutic efficacy against juvenile sea lice (% reduction vs control, Abbott's formula), once orally by gavage 5 mg/kg bodyweight, day -3 infestation, counted around day 28
SMILES,inhibition at 0.01 µM [2],EC50 [3],"inhibition in vivo at 5 mg/kg [4, 5]","inhibition in vivo at 5 mg/kg [4, 6]","inhibition in vivo at 5 mg/kg [4, 7]",also measured
N#CC1(NC(=O)c2cc(NC(=O)[C@H]3[C@H](c4cc(Cl)c(Cl)c(Cl)c4)C3(Cl)Cl)ccc2Cl)CC1 [Compound 1541],100%,1 to 10 nM,80%,100%,100%,"therapeutic efficacy against juvenile sea lice ([1]; day -3 infestation, counted around day 25): 100%; therapeutic efficacy against (pre-)adult sea lice ([1]; day -28 infestation, counted around day 8): 100%; prophylactic efficacy against re-infestation after treatment (D14) ([1]; re-infestation D14): 100%; prophylactic efficacy against re-infestation after treatment (D28) ([1]; re-infestation D28): 100%"
O=C(NCC(F)(F)F)c1cc(NC(=O)[C@H]2[C@H](c3ccc(F)c(F)c3)C2(Cl)Cl)ccc1Cl [Compound 1584],,≤ 1 nM,100%,,,inhibition at 0.0001 µM [2]: 100%
N#CC1(NC(=O)c2cc(NC(=O)[C@H]3[C@H](c4ccc(Br)c(Cl)c4)C3(Cl)Cl)ccc2Cl)CC1 [Compound 1585],,1 to 10 nM,100%,,100%,inhibition at 0.1 µM [2]: 100%
N#CC1(NC(=O)c2cc(NC(=O)[C@H]3[C@H](c4ccc(C(F)F)c(F)c4)C3(Cl)Cl)ccc2Cl)CC1 [Compound 1587],,≤ 1 nM,80%,,,inhibition at 0.1 µM [2]: 100%
O=C(NCC(F)(F)F)c1cc(NC(=O)[C@H]2[C@H](c3cc(Cl)cc(Cl)c3)C2(Cl)Cl)ccc1Cl [Compound 1592],,≤ 1 nM,100%,,100%,inhibition at 0.0001 µM [2]: 80%
O=C(NCC(F)(F)F)c1cc(NC(=O)[C@H]2[C@H](c3cc(F)c(F)c(F)c3)C2(Cl)Cl)ccc1Cl [Compound 1593],,≤ 1 nM,100%,,80%,inhibition at 10 pM [2]: 100%
O=C(NC1CC(F)(F)C1)c1cc(NC(=O)[C@H]2[C@H](c3cccc(C(F)(F)F)c3)C2(Cl)Cl)ccc1Cl [Compound 1601],,1 to 10 nM,100%,,100%,inhibition at 0.001 µM [2]: 100%
N#CC1(NC(=O)c2cc(NC(=O)C3C(c4cc(Cl)cc(Cl)c4)C3(Cl)Cl)ccc2F)CC1 (centres unmarked) [Compound 1605],,≤ 1 nM,100%,,100%,inhibition at 10 pM [2]: 100%
N#CC1(NC(=O)c2cc(NC(=O)[C@H]3[C@H](c4ccc(Cl)c(F)c4)C3(Cl)Cl)ccc2Cl)CC1 [Compound 1606],,10 to 25 nM,100%,,100%,inhibition at 0.1 µM [2]: 100%
N#CC1(NC(=O)c2cc(NC(=O)[C@H]3[C@H](c4ccc(F)c(Cl)c4)C3(Cl)Cl)ccc2Cl)CC1 [Compound 1608],,≤ 1 nM,100%,,100%,inhibition at 10 pM [2]: 100%
N#CC1(NC(=O)c2cc(NC(=O)[C@H]3[C@H](c4cc(Cl)c(F)c(Cl)c4)C3(Cl)Cl)ccc2Cl)CC1 [Compound 1609],100%,1 to 10 nM,100%,100%,100%,
"C#CC1(NC(=O)c2cc(NC(=O)[C@H]3[C@H](c4cc(Cl)cc(Cl)c4)C3(Cl)Cl)cc(F)c2F)CC1 [Compound 1617, 5-((1R,3R)-2,2-dichloro-3-(3,5-dichlorophenyl)cyclopropane-1-carboxamido)-N-(1-ethynylcyclopropyl)-2,3-difluorobenzamide]",,≤ 1 nM,100%,100%,100%,inhibition at 0.1 µM [2]: 100%
O=C(NC1CC1)c1cc(NC(=O)[C@H]2[C@H](c3cc(Cl)cc(Cl)c3)C2(Cl)Cl)cc(F)c1F [Compound 1618],100%,≤ 1 nM,100%,100%,100%,
CC1(NC(=O)c2cc(NC(=O)[C@H]3[C@H](c4cc(Cl)cc(Cl)c4)C3(Cl)Cl)ccc2Cl)CC1 [Compound 1619],100%,≤ 1 nM,100%,,80%,
"C#CC1(NC(=O)c2cc(NC(=O)[C@H]3[C@H](c4cc(Cl)cc(Cl)c4)C3(Cl)Cl)ccc2Cl)CC1 [Compound 1620, 2-chloro-5-((1R,3R)-2,2-dichloro-3-(3,5-dichlorophenyl)cyclopropane-1-carboxamido)-N-(1-ethynylcyclopropyl)benzamide]",100%,≤ 1 nM,100%,,80%,
O=C(NC1CC1)c1cc(NC(=O)[C@H]2[C@H](c3cc(Cl)cc(Cl)c3)C2(Cl)Cl)ccc1Cl [Compound 1621],100%,≤ 1 nM,100%,,80%,
C#CCNC(=O)c1cc(NC(=O)[C@H]2[C@H](c3cc(Cl)cc(Cl)c3)C2(Cl)Cl)ccc1Cl [Compound 1622],≥ 80%,≤ 1 nM,100%,,,
N#CC1(NC(=O)c2cc(NC(=O)[C@H]3[C@H](c4cc(F)c(F)c(F)c4)C3(Cl)Cl)ccc2F)CC1 [Compound 1623],,1 to 10 nM,100%,,80%,inhibition at 0.0001 µM [2]: 100%
N#CC1(NC(=O)c2cc(NC(=O)[C@H]3[C@H](c4cc(F)c(F)c(F)c4)C3(Cl)Cl)ccc2Cl)CC1 [Compound 1624],,1 to 10 nM,100%,80%,80%,inhibition at 0.0001 µM [2]: 100%
O=C(NC1CC(F)(F)C1)c1cc(NC(=O)[C@H]2[C@H](c3cc(Cl)cc(Cl)c3)C2(Cl)Cl)ccc1Cl [Compound 1625],,≤ 1 nM,100%,100%,100%,inhibition at 0.1 µM [2]: 100%
CC1(NC(=O)c2cc(NC(=O)[C@H]3[C@H](c4cc(Cl)cc(Cl)c4)C3(Cl)Cl)ccc2F)CC1 [Compound 1626],≥ 80%,1 to 10 nM,100%,,80%,
O=C(NC1CC(F)(F)C1)c1cc(NC(=O)[C@H]2[C@H](c3cc(Cl)cc(Cl)c3)C2(Cl)Cl)cc(F)c1F [Compound 1628],100%,1 to 10 nM,100%,100%,100%,
O=C(NC1CC(F)(F)C1)c1cc(NC(=O)[C@H]2[C@H](c3cc(Cl)cc(Cl)c3)C2(Cl)Cl)ccc1F [Compound 1630],100%,≤ 1 nM,100%,100%,100%,
O=C(NC1CC1)c1cc(NC(=O)[C@H]2[C@H](c3cc(Cl)cc(Cl)c3)C2(Cl)Cl)ccc1F [Compound 1632],,≤ 1 nM,100%,,80%,inhibition at 10 pM [2]: 80%
"C#CC1(NC(=O)c2cc(NC(=O)[C@H]3[C@H](c4cc(Cl)cc(Cl)c4)C3(Cl)Cl)ccc2F)CC1 [Compound 1633, 5-((1R,3R)-2,2-dichloro-3-(3,5-dichlorophenyl)cyclopropane-1-carboxamido)-N-(1-ethynylcyclopropyl)-2-fluorobenzamide]",,≤ 1 nM,100%,80%,100%,inhibition at 0.001 µM [2]: 80%
